PubChem BioAssay AID2060498 (Molecular Pharmacology Branch, DTP, NCI, 2025)
“And” between values parts separate entries of the source, which are not always exact repeats. Equal values may be shown once. Blank lines part the entries; values can stand above or below the compound they belong to.

Tested on: 171881-019-R-J1-PDC tumor spheroids, viability
Assay: Anticancer human tumor 171881-019-R-J1-PDC patient-derived invasive breast carcinoma cell line growth inhibition [GQUAD]
Settings: spheroids with HUVEC and MSC; for viability, T/C: stronger effect = lower value
From the text: DNA G-quadruplex Stabilizer Agents in Combinations in Complex Spheroids
A high-throughput screen of multi-cell type tumor spheroids was designed to identify active combinations of DNA G-quadruplex stabilizer agents and targeted small molecules. Complex spheroids include a stromal component modeled by human endothelial cells (HUVEC) and fibroblasts modeled by human mesenchymal stem cells (MSCs). The concentration ranges selected for each drug and investigational agent were based upon clinically achievable concentrations if the clinical Cmax of the agent was known.
Compounds. The drugs and investigational agents: pidnarulex (CX-5461; NSC782164), APTO-253 (NSC789042), BRACO-19 (NSC847499), peposertib (NSC802822), ceralasertib (NSC780249), elimusertib (NSC800525), camonsertib (NSC841442), AZD-1390 (NSC803789), olaparib (NSC753686), talazoparib (NSC767125), ART-558 (NSC835418), sotorasib (NSC818433), MRTX-1133 (NSC836407), SN-38 (NSC673596), topotecan (NSC609699), etoposide (NSC141540), doxorubicin (NSC123127), gemcitabine (NSC613327), 5-fluorouracil (NSC19893), paclitaxel (NSC125973), vemurafenib (NSC761431), panobinostat (NSC761190), R-306465 (JNJ-16241199; NSC773264), adavosertib (NSC754352), TP-3654 (NSC805149), carboplatin (NSC241240), KSQ-4279 (NSC840948), and staurosporine (NSC755774) were obtained from the National Cancer Institute (NCI) Developmental Therapeutics Program Chemical Repository (34). The FDA-approved anticancer drug set is available from the NCI Developmental Therapeutics Program. […] The stock solutions were prepared in dimethyl sulfoxide (DMSO, Sigma-Aldrich, St. Louis, MO, cat. D2650) at 800-fold the tested concentration and stored at -70 degrees C prior to their use. All drugs and investigational agents were tested over a range starting from a high concentration at or near the clinical Cmax and decreasing in half-log increments. If the clinical Cmax for an agent had not been determined, the highest concentration tested was 10 microM.
2.3 Cell Culture. All cells were maintained in an incubator at 37 degrees C and 5% CO2 with 95% humidity. The PDC lines were cultured according to standard operating procedures established by the NCI PDMR. All PDCs were thawed and cultured in Matrigel-coated flasks prepared with a working solution of 1X Ham's F-12 nutrient mix, without supplementation (Invitrogen, cat. 11765054), 100 U/mL penicillin-streptomycin (Invitrogen, cat. 15140122), and 2.5% Matrigel (Corning Inc., cat. 354248) for the first three passages. The 857933-349-R-J2-PDC line was cultured in 6C/Colon 1B media, which includes advanced DMEM/F-12 (Thermo Fisher Scientific, cat. 12634028), 10 mM HEPES (Thermo Fisher Scientific, cat. 15630080), 1X GlutaMAX supplement (Thermo Fisher Scientific, cat. 35050061), 0.1 mg/mL primocin (InvivoGen, cat. ant-pm-2), 10% defined fetal bovine serum, heat inactivated (HyClone Laboratories Inc., cat. SH30070.03HI), 50% L-WRN conditioned media (ATCC, cat. CRL-3276), 1.25 mM N-Acetyl-L-cysteine (Sigma-Aldrich, cat. A9165), 10 mM nicotinamide (Sigma-Aldrich, cat. N0636), 1X B-27 supplement (Thermo Fisher Scientific, cat. 17504044), 1X N-2 supplement (Thermo Fisher Scientific, cat. 17502048), 10 microM Y-27632 dihydrochloride (Tocris Bioscience, cat. 1254), and 50 ng/mL human EGF recombinant protein (Thermo Fisher Scientific, cat. PHG0311). The 485176-168-R4-J1-PDC line was cultured in Panc media, which includes all 6C/Colon 1B media components plus 100 ng/mL human FGF-10 (Thermo Fisher Scientific, cat. 100-26), 500 nM SB-431542 (Selleckchem, cat. S1067), and gastrin (Tocris, cat. 3006).
[…]
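Note: spheroids exposed to compounds for 7 days.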
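Throughout, for viability, T/C: 100% = DMSO vehicle control viability.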

Structure (SMILES): CCc1c2c(nc3ccc(O)cc13)-c1cc3c(c(=O)n1C2)COC(=O)[C@]3(O)CC
viability, T/C (compound 0.000999 µM): 77.2% and 89.1% and 77.4% | viability, T/C (compound 0.00316 µM): 38.9% and 53.4% and 39.7% | viability, T/C (compound 0.00999 µM): 37.3% and 53.9% and 33% | viability, T/C (compound 0.0316 µM): 32% and 42.5% and 33.4% | viability, T/C (compound 0.0999 µM): 27.4% and 34.3% and 26% | viability, T/C (compound 0.316 µM): 23.4% and 26.1% and 21.4% | IC50 (curve of compound): 2.46 nM and 8.66 nM and 2.44 nM

Structure (SMILES): CCCS(=O)(=O)Nc1ccc(F)c(C(=O)c2c[nH]c3ncc(-c4ccc(Cl)cc4)cc23)c1F
viability, T/C (compound 0.0316 µM): 93.6% and 96.9% and 102% | viability, T/C (compound 0.1 µM): 104% and 92.1% and 101% | viability, T/C (compound 0.316 µM): 105% and 114% and 98.3% | viability, T/C (compound 1 µM): 113% and 97.5% and 123% | viability, T/C (compound 3.16 µM): 96.5% and 102% and 108% | viability, T/C (compound 10 µM): 51% and 50.6% and 74.3% | IC50 (curve of compound): > 10000 nM

Structure (SMILES): C=CCn1c(=O)c2cnc(Nc3ccc(N4CCN(C)CC4)cc3)nc2n1-c1cccc(C(C)(C)O)n1
viability, T/C (compound 0.0316 µM): 101% and 105% (2×) | viability, T/C (compound 0.1 µM): 80.9% and 102% and 89.4% | viability, T/C (compound 0.316 µM): 76.6% and 92% and 76.5% | viability, T/C (compound 1 µM): 35.9% (2×) and 39.2% | viability, T/C (compound 3.16 µM): 18.3% and 21.7% and 21.2% | viability, T/C (compound 10 µM): 23.2% and 23.1% and 21.7% | IC50 (curve of compound): 660 nM and 789 nM and 669 nM

Structure (SMILES): CC1COCCN1c1cc(C2(O)CC3CCC(C2)O3)c2cnn(-c3ccn[nH]3)c2n1 (configuration not stated) + CN(C)c1ccc(Nc2c3ccc(NC(=O)CCN4CCCC4)cc3nc3cc(NC(=O)CCN4CCCC4)ccc23)cc1
IC50 (curve of first compound, second compound 0.0316 µM): < 31.6 nM | IC50 (curve of first compound, second compound 0.1 µM): < 31.6 nM | IC50 (curve of first compound, second compound 0.316 µM): < 31.6 nM | IC50 (curve of first compound, second compound 1 µM): < 31.6 nM | IC50 (curve of first compound, second compound 3.16 µM): < 31.6 nM | IC50 (curve of first compound, second compound 10 µM): < 31.6 nM | viability, T/C (second compound 0.0316 µM, first compound 0.0316 µM): 48% | viability, T/C (second compound 0.0316 µM, first compound 0.1 µM): 16.6% | viability, T/C (second compound 0.0316 µM, first compound 0.316 µM): 5.6% | viability, T/C (second compound 0.0316 µM, first compound 1 µM): 1.83% | viability, T/C (second compound 0.0316 µM, first compound 3.16 µM): 1.12% | viability, T/C (second compound 0.0316 µM, first compound 10 µM): 0.76% | viability, T/C (second compound 0.1 µM, first compound 0.0316 µM): 47.5% | viability, T/C (second compound 0.1 µM, first compound 0.1 µM): 15.7% | viability, T/C (second compound 0.1 µM, first compound 0.316 µM): 5.27% | viability, T/C (second compound 0.1 µM, first compound 1 µM): 1.88% | viability, T/C (second compound 0.1 µM, first compound 3.16 µM): 1.2% | viability, T/C (second compound 0.1 µM, first compound 10 µM): 1.32% | viability, T/C (second compound 0.316 µM, first compound 0.0316 µM): 41.9% | viability, T/C (second compound 0.316 µM, first compound 0.1 µM): 13.6% | viability, T/C (second compound 0.316 µM, first compound 0.316 µM): 4.24% | viability, T/C (second compound 0.316 µM, first compound 1 µM): 1.41% | viability, T/C (second compound 0.316 µM, first compound 3.16 µM): 1.02% | viability, T/C (second compound 0.316 µM, first compound 10 µM): 0.73% | viability, T/C (second compound 1 µM, first compound 0.0316 µM): 12.1% | viability, T/C (second compound 1 µM, first compound 0.1 µM): 4.72% | viability, T/C (second compound 1 µM, first compound 0.316 µM): 2.23% | viability, T/C (second compound 1 µM, first compound 1 µM): 0.4% | viability, T/C (second compound 1 µM, first compound 3.16 µM): 0.33% | viability, T/C (second compound 1 µM, first compound 10 µM): 0.3% | viability, T/C (second compound 3.16 µM, first compound 0.0316 µM): 1.34% | viability, T/C (second compound 3.16 µM, first compound 0.1 µM): 0.9% | viability, T/C (second compound 3.16 µM, first compound 0.316 µM): 0.41% | viability, T/C (second compound 3.16 µM, first compound 1 µM): 0.14% | viability, T/C (second compound 3.16 µM, first compound 3.16 µM): 0.16% | viability, T/C (second compound 3.16 µM, first compound 10 µM): 0.2% | viability, T/C (second compound 10 µM, first compound 0.0316 µM): 0.14% | viability, T/C (second compound 10 µM, first compound 0.1 µM): 0.25% | viability, T/C (second compound 10 µM, first compound 0.316 µM): 0.42% | viability, T/C (second compound 10 µM, first compound 1 µM): 0.25% | viability, T/C (second compound 10 µM, first compound 3.16 µM): 0.16% | viability, T/C (second compound 10 µM, first compound 10 µM): 0.14%

Structure (SMILES): CN(C)c1ccc(Nc2c3ccc(NC(=O)CCN4CCCC4)cc3nc3cc(NC(=O)CCN4CCCC4)ccc23)cc1
viability, T/C (compound 0.0316 µM): 97.6% [middle of 12 runs] | viability, T/C (compound 0.1 µM): 99.5% [middle of 12 runs] | viability, T/C (compound 1 µM): 20% [middle of 12 runs] | viability, T/C (compound 3.16 µM): 1.98% [middle of 11 runs] | viability, T/C (compound 10 µM): 0.43% [middle of 12 runs] | IC50 (compound alone, run of 02/26/2024): 548 nM [middle of 12 runs]

Structure (SMILES): CC1COCCN1c1cc(C2(S(C)(=N)=O)CC2)nc(-c2ccnc3[nH]ccc23)n1 (configuration not stated)
viability, T/C (compound 0.0316 µM): 106% and 98.7% and 79.5% | viability, T/C (compound 0.1 µM): 97.3% and 97.8% and 89.9% | viability, T/C (compound 0.316 µM): 93.4% and 89.1% and 82.5% | viability, T/C (compound 1 µM): 59.2% and 58.9% and 55.1% | viability, T/C (compound 3.16 µM): 18.7% and 17.7% and 17% | viability, T/C (compound 10 µM): 9.35% and 7.04% and 9.31% | IC50 (curve of compound): 1290 nM and 1270 nM and 1170 nM

Further lines, with some results ahead:

IC50 (curve of compound): 478 nM and 552 nM and 475 nM
Structure (SMILES): C#Cc1c(F)ccc2cc(O)cc(-c3ncc4c(N5CC6CCC(C5)N6)nc(OCC56CCCN5CC(F)C6)nc4c3F)c12 (configuration not stated)
viability, T/C (compound 0.0316 µM): 91.1% and 86.6% and 83.5% | viability, T/C (compound 0.1 µM): 72.5% and 68.7% and 74.1% | viability, T/C (compound 0.316 µM): 55.5% and 61.2% and 55.2% | viability, T/C (compound 1 µM): 41.4% and 38% and 36.8% | viability, T/C (compound 3.16 µM): 29.1% and 29.3% and 26.5% | viability, T/C (compound 10 µM): 24.5% and 6.82% and 10.6%

IC50 (compound alone, run of 02/20/2024): > 10000 nM
Structure (SMILES): Cc1cnc(CNC(=O)c2c(=O)c3ccc(N4CCCN(C)CC4)nc3n3c2sc2ccccc23)cn1
viability, T/C (compound 0.0316 µM): 94.3% [middle of 12 runs] | viability, T/C (compound 0.1 µM): 85.4% [middle of 12 runs] | viability, T/C (compound 0.316 µM): 76% [middle of 12 runs] | viability, T/C (compound 1 µM): 70.7% [middle of 11 runs] | viability, T/C (compound 3.16 µM): 65% [middle of 12 runs] | viability, T/C (compound 10 µM): 62.7% [middle of 12 runs]

IC50 (curve of compound): > 10000 nM
Structure (SMILES): O=C(c1cc(Cc2n[nH]c(=O)c3ccccc23)ccc1F)N1CCN(C(=O)C2CC2)CC1
viability, T/C (compound 0.0316 µM): 96.1% and 101% and 87.5% | viability, T/C (compound 0.1 µM): 94.4% and 97.5% and 96.8% | viability, T/C (compound 0.316 µM): 94.5% and 105% and 103% | viability, T/C (compound 1 µM): 103% and 101% and 96.6% | viability, T/C (compound 3.16 µM): 100% and 97.8% and 95.5% | viability, T/C (compound 10 µM): 89.8% and 88.3% and 89.4%
